Measurements as given in ChEMBL document CHEMBL4339196, “1H-Pyrrolo[3,2-b]pyridine GluN2B-Selective Negative Allosteric Modulators” (ACS Med Chem Lett, 2019).

How the values were obtained:
[1] = Solubility of the compound at pH 2; format: physicochemical; conditions: buffer
[2] = Solubility of the compound at pH 7; format: physicochemical; conditions: buffer

solubility [1]: < 4 µM
solubility [2]: < 4 µM
Structure (SMILES): O=C(Cn1c(=O)[nH]c2ncc(-c3cccc(C(F)(F)F)c3)cc21)NC1CC1
